Literature values, collected in patent US6410548B1, “Spiropiperidine derivatives as melanocortin receptor agonists” (Merck & Co., Inc., priority 1998, dated 2002).

Experiments:
[1] = test system: normal male volunteers; conditions: intramuscular, 0.005-0.03 mg/kg, three normal male volunteers
[2] = test system: non-organic impotent patients; conditions: intramuscular, 0.025 mg/kg and 0.1 mg/kg, 10 non-organic impotent patients
[3] = test system: rodents; conditions: injected ICV; feeding models NPY, ob/ob, agouti, fasted

Row | Substance | period of intermittent non-painful penile erections after dosing [1] | onset of transient erections [2] | responders (transient erections) [2] | effect on food intake [3]
1 | melanotan-II [MT-II] | 1 to 5 h | 50 to 180 min | 8 | reduces food intake
2 | SHU-9119 | – | – | – | reverses this effect and can induce hyperphagia
